Reference: article PMC9885530, “Identification of Natural Products Inhibiting SARS-CoV-2 by Targeting Viral Proteases: A Combined in Silico and in Vitro Approach” (Journal of Natural Products, 2023)
Values joined by “and” are separate entries in the source; they are usually repeats but may differ in a detail not shown here. Equal values may be shown once. Read-outs that look alike come from different tables or passages of the source.

What was measured:
SARS-CoV-2 PLpro [1] = biological target: T1, SARS-CoV-2 PLpro (Severe acute respiratory syndrome coronavirus 2, UniProt P0DTD1); assay: biochemical; set-up: papain-like protease (PL^pro; domain of nsp3); purchased Anaspec (Fremont, USA) AS-72263; conditions: for inhibition at 20 µM: read-out: SARS-CoV-2 PLpro inhibition % enzyme inhibition (20 µM); for SARS-CoV-2 PLpro inhibition % enzyme inhibition (20 µM): commercial Anaspec assay kit
SARS-CoV-2 PLpro [2] = biological target: T1, SARS-CoV-2 PLpro; assay: PL^pro fluorogenic peptide cleavage assay (substrate Z-RLRGG-AMC); assay type: biochemical; set-up: papain-like protease (PL^pro; domain of nsp3); His; purchased BPS Biosciences BPS-100735-1; conditions: for inhibition at 20 µM: read-out: SARS-CoV-2 PL^pro enzyme inhibition (%) 20 μM; for inhibition at 100 µM: read-out: SARS-CoV-2 PL^pro enzyme inhibition (%) 100 μM
in vitro = conditions: human
SARS-CoV-2 [3] = assay: Antiviral assay in Calu-3 cells (spike staining); assay type: cell-based; conditions: for antiviral activity against SARS-CoV-2 (in words): two different cell lines (Caco-2, Calu-3)
SARS-CoV-2 M^pro = SARS-CoV-2 M^pro (Severe acute respiratory syndrome coronavirus 2, UniProt P0DTD1); assay: biochemical; assay type: biochemical; conditions: for inhibition at 20 µM: read-out: SARS-CoV-2 M^pro enzyme inhibition (%) 20 μM; for inhibition at 100 µM: 100 μM compound, read-out: SARS-CoV-2 M^pro enzyme inhibition (%) 100 μM
M^pro [4] = biological target: T2, M^pro (Severe acute respiratory syndrome coronavirus 2, UniProt P0DTD1); assay type: binding; conditions: 2 μM protein, 50 μM ligand
[5] = Cytotoxicity in Calu-3 cells; conditions: human
[6] = Cytotoxicity in Caco-2 cells; conditions: human
SARS-CoV-2 [7] = assay: Antiviral assay in Caco-2 cells; assay type: cell-based; conditions: Severe acute respiratory syndrome coronavirus 2, Caco-2, read-out: Anti SARS-CoV-2 activity Caco-2 IC50 (µM)
M^pro [8] = biological target: T2, M^pro; assay: Competitive 1H CPMG relaxation dispersion NMR with compound 4 as reporter ligand; assay type: binding, SARS-CoV-2; conditions: competition with compound 4
[9] = Severe acute respiratory syndrome coronavirus 2, Calu-3, 48 h, read-out: Anti-SARS-CoV-2 activity IC50 (μM)
[10] = 20 μM compound, buffer with 5 mM DTT, for values marked a the relative standard deviation of 6% applies
[11] = Severe acute respiratory syndrome coronavirus 2, Calu-3 cells, MOI 0.01, 48 h postinfection, read-out: Anti-SARS-CoV-2 activity IC50
[12] = read-out: SARS-CoV-2 M^pro IC50, buffer with 5 mM DTT

Row | Structure (SMILES) | inhibition at 20 µM (SARS-CoV-2 PLpro [1]) [%] | inhibition at 20 µM (SARS-CoV-2 PLpro [2]) [%] | inhibition at 100 µM (SARS-CoV-2 PLpro [2]) [%] | inhibition at 20 µM (SARS-CoV-2 M^pro; [10]) [%] | inhibition at 100 µM (SARS-CoV-2 M^pro; buffer with 5 mM DTT) [%] | other results
1 | COc1cc(CNC(=O)CCCC/C=C/C(C)C)ccc1O [Compound 31, trans-capsaicin] | 32.4 ± 13.7 | 5.6 ± 9.7 | 5.3 ± 0.1 |  |  | 
2 | COc1cc(C2Oc3cc([C@H]4Oc5cc(O)cc(O)c5C(=O)[C@@H]4O)ccc3OC2CO)ccc1O (stereo partly shown) [Compound 34, silibinin] | 50.3 ± 14.3 | 6.5 ± 3.6 |  |  |  | CC50 (in vitro): > 100 µM; IC50 (SARS-CoV-2 [3]; [9]): > 100 µM
3 | COc1ccc(C(=O)COc2ccc3c(c2)O/C(=C\c2cc(OC)ccc2OC)C3=O)cc1 [Compound 43] | 13.5 ± 25.5 | 10 ± 5.4 | 14.3 ± 3.4 |  |  | 
4 | C=C(C)[C@H](CC=C(C)C)Cc1c(O)cc(OC)c2c1O[C@H](c1ccc(O)cc1O)CC2=O [Compound 21, kurarinone] |  |  |  | 30.2 | 99.2 ± 2.5 | 
5 | O=C(CCCN1C(=O)c2ccccc2N2C(=O)c3ccccc3C12)NCCc1cnc[nH]1 (stereo not shown) [Compound 28] |  |  |  | 14.1 ± 5.1 | 59.7 ± 1 | 
6 | O=C(/C=C/c1ccc(O)c(O)c1)O[C@@H](C(=O)O)[C@@H](OC(=O)/C=C/c1ccc(O)c(O)c1)C(=O)O [Compound 18, chicoric acid] |  |  |  | 0.7 | 11.5 ± 0.6 | 
7 | CC(C)=CCC12Oc3cc(O)c([C@@H]4C=C(C)C[C@H](c5ccc(O)cc5O)[C@H]4C(=O)c4ccc(O)cc4O)c(O)c3C(=O)C1(O)Oc1cc(O)ccc12 (stereo partly shown) [Compound 14, sanggenon D] |  |  |  |  |  | STD signals (M^pro [4]): exhibited STD signals; CC50 [5]: 46.2 µM; IC50 (SARS-CoV-2 [3]; [11]): 18.5 µM; IC50 (SARS-CoV-2 M^pro; SARS-CoV-2 M^pro IC50 (μM), buffer with 5 mM DTT): 13.8 µM and 13.9 µM
8 | CC(C)=CCC/C(C)=C/Cc1c(O)ccc([C@@H]2CC(=O)c3c(O)cc(O)cc3O2)c1O [Compound 11, sanggenol A] |  |  |  | 31.9 | 98.3 ± 2.4 | 
9 | CCC(CC)COC(=O)[C@H](C)N[P@](=O)(OC[C@H]1O[C@@](C#N)(c2ccc3c(N)ncnn23)[C@H](O)[C@@H]1O)Oc1ccccc1 [Compound 1, remdesivir, reference compound] |  |  |  |  |  | CC50 [5]: > 0.1 µM; IC50 (SARS-CoV-2 [3]; [11]): 0.00125 µM
10 | COc1ccc2c(C)c(CC(=O)Nc3c(C)cccc3C(C)C)c(=O)oc2c1OC [Compound 45] | -2.6 ± 36.1 | 9 ± 4.3 | 2.6 ± 0.1 |  |  | 
11 | Cn1cc(CNC(=O)c2cc([N+](=O)[O-])ccc2Cl)cn1 [Compound 38] | 26.1 ± 15.2 | 3 ± 0.7 | 6.4 ± 4.6 |  |  | 
12 | COc1cc([C@@H]2Oc3c(O)cc([C@H]4Oc5cc(O)cc(O)c5C(=O)[C@@H]4O)cc3[C@H]2CO)ccc1O [Compound 33, silicristin] |  | 3.4 ± 7.8 | 19.8 ± 2 |  |  | 
13 | CN1[C@@H](CC(=O)c2ccccc2)CCC[C@H]1C[C@H](O)c1ccccc1 [Compound 32, lobelin] | 26.6 ± 11 | 3.7 ± 2.6 |  |  |  | 
14 | CC(C)(O)CCc1c(-c2ccc(O)cc2O)oc2c3c(cc(O)c2c1=O)OC(C)(C)C=C3 [Compound 24, morusinol] |  |  |  | 23.1 ± 2.8 | 71.2 ± 1.9 | 
15 | O=C(CCc1ccccc1)C[C@H]1C[C@H](c2ccccc2)c2c(cc(/C=C/c3ccccc3)oc2=O)O1 [Compound 17, katsumadain A] |  |  |  | 5 | 47.7 ± 2.8 | 
16 | C=CCc1ccc(O)c(-c2cc(CC=C)ccc2O)c1 [Compound 36, magnolol] | 58.2 ± 11.5 | 4.3 ± 6.6 |  |  |  | CC50 [6]: 47.3 µM; IC50 (SARS-CoV-2 [7]): 17.7 µM; CC50 [5]: > 20 µM; IC50 (SARS-CoV-2 [3]; [9]): 26.8 µM; antiviral activity against SARS-CoV-2 (in words) (SARS-CoV-2 [3]): moderately acting antiviral compounds
17 | O=C(/C=C/c1ccc(O)c(O)c1)OC1CC(OC(=O)/C=C/c2ccc(O)c(O)c2)(C(=O)O)CC(O)C1O (stereo not shown) [Compound 19, cynarine] |  |  |  |  | 9.8 ± 13.3 | 
18 | CC(C)=CC[C@@]12Oc3cc(O)c([C@H]4C=C(C)C[C@H](c5ccc(O)cc5O)[C@H]4C(=O)c4ccc(O)cc4O)c(O)c3C(=O)[C@]1(O)Oc1cc(O)ccc12 [Compound 13, sanggenon O] |  |  |  |  |  | STD signals (M^pro [4]): no STD signals were detected; CC50 [5]: 24.9 µM; IC50 (SARS-CoV-2 [3]; [11]): 8 µM; IC50 (SARS-CoV-2 M^pro; [12]): 6.7 µM; displacement of reporter ligand 4 from M^pro (CPMG-RD) (M^pro [8]): did not significantly displace 4

Row | Structure (SMILES) | inhibition at 20 µM (SARS-CoV-2 PLpro [1]) [%] | inhibition at 20 µM (SARS-CoV-2 PLpro [2]) [%] | inhibition at 100 µM (SARS-CoV-2 PLpro [2]) [%] | inhibition at 20 µM (SARS-CoV-2 M^pro; [10]) [%] | inhibition at 100 µM (SARS-CoV-2 M^pro; buffer with 5 mM DTT) [%] | other results
19 | O=C(CC(c1ccccc1)c1ccccc1)NCCCc1ccccc1 [Compound 40] | 41.5 ± 16.5 | 1.6 ± 8.8 | 5 ± 2.6 |  |  | 
20 | C=CCc1ccc(O)c(-c2ccc(O)c(CC=C)c2)c1 [Compound 35, honokiol] | 80.6 ± 9.9 | 4.9 ± 4.6 | 5.3 ± 3.2 |  |  | CC50 [6]: 91.2 µM; IC50 (SARS-CoV-2 [7]): 16.2 µM; CC50 [5]: > 20 µM; IC50 (SARS-CoV-2 [3]; [9]): 28.4 µM; antiviral activity against SARS-CoV-2 (in words) (SARS-CoV-2 [3]): moderately acting antiviral compounds; SARS-CoV-2 PLpro inhibition % enzyme inhibition (20 µM) (SARS-CoV-2 PLpro [1]): significant enzyme inhibition
21 | CC(C)(O)[C@H](O)COc1c2ccoc2cc2oc(=O)ccc12 [Compound 37, oxypeucedanin hydrate] | 97.5 ± 14.6 |  |  |  |  | CC50 (in vitro): > 100 µM; IC50 (SARS-CoV-2 [3]; [9]): > 100 µM; SARS-CoV-2 PLpro inhibition % enzyme inhibition (20 µM) (SARS-CoV-2 PLpro [1]): significant enzyme inhibition
22 | COCCN1C(=O)C(O)=C(C(=O)c2ccc(OC)c(C)c2)C1c1ccc(O)cc1 (stereo not shown) [Compound 39] | 26 ± 34.7 | 10 ± 5.4 | 42 ± 1.3 |  |  | 
23 | CC(C)=CCc1c(-c2ccc(O)cc2O)oc2c3c(cc(O)c2c1=O)OC(C)(C)C=C3 [Compound 23, morusin] |  |  |  |  |  | CC50 (in vitro): 25.2 µM; IC50 (SARS-CoV-2 [3]; [11]): 24.9 µM; IC50 (SARS-CoV-2 M^pro; [12]): 33.5 µM
24 | CC(C)=CCc1cc(-c2coc3cc(O)ccc3c2=O)ccc1O [Compound 20, neobavaisoflavone] |  |  |  |  |  | inhibition at 20 µM (SARS-CoV-2 M^pro): 18%
25 | COc1ccc(C(=O)N(CCN(Cc2ccccc2)C(=O)c2ccc(OC)cc2)Cc2ccccc2)cc1 [Compound 27] |  |  |  | 4.8 ± 4 | 28.2 ± 8.3 | 
26 | COc1cc(CC(CO)Oc2ccc(CCCO)cc2OC)ccc1O (stereo not shown) [Compound 47] | -55.8 ± 32.4 | 8.8 ± 5.6 | 0.5 ± 0.8 |  |  | 
27 | CC(C)=CC[C@]12Oc3cc(O)c([C@H]4C=C(C)C[C@H](c5ccc(O)cc5O)[C@H]4C(=O)c4ccc(O)cc4O)c(O)c3C(=O)[C@@]1(O)Oc1cc(O)ccc12 [Compound 12, sanggenon C] |  |  |  |  |  | STD signals (M^pro [4]): no STD signals were detected; CC50 [5]: 23.6 µM; IC50 (SARS-CoV-2 [3]; [11]): 4.6 µM; IC50 (SARS-CoV-2 M^pro; [12]): 7.24 µM and 7.2 µM; displacement of reporter ligand 4 from M^pro (CPMG-RD) (M^pro [8]): displacement from the binding site
28 | COc1ccc(CNC(=O)c2ccc(Cn3c(=O)c(C)nc4ccccc43)cc2)cc1 [Compound 46] |  | 12.7 ± 6.9 | 14 ± 3.4 |  |  | 
29 | CC1=C[C@H](c2c(O)ccc([C@@H]3CC(=O)c4c(O)cc(O)cc4O3)c2O)[C@@H](C(=O)c2ccc(O)cc2O)[C@H](c2ccc(O)cc2O)C1 [Compound 16, kuwanon L] |  |  |  | 70.4 | 97.6 ± 2.5 | STD signals (M^pro [4]): exhibited STD signals; CC50 [5]: 97.7 µM; IC50 (SARS-CoV-2 M^pro; read-out: SARS-CoV-2 M^pro IC50): 5.25 µM and 5.3 µM
30 | CC(C)=CCc1c(-c2ccc(O)c3c2OC(C)(C)C=C3)oc2cc(O)cc(O)c2c1=O [Compound 22, kuwanon A] |  |  |  | 45.5 ± 7.1 | 79.2 ± 2.4 | CC50 (in vitro): 47.7 µM; IC50 (SARS-CoV-2 [3]; [11]): 35.6 µM; IC50 (SARS-CoV-2 M^pro; [12]): 35.2 µM
31 | COc1cc2c(cc1OC)/C(=C/C(=O)c1ccc(CSC)cc1)NCC2 [Compound 41] |  | 9.6 ± 5.8 | 14.6 ± 13.1 |  |  | 
32 | COc1cc(O)c(C(=O)/C=C/c2ccccc2)c(O)c1[C@H]1C[C@H](c2ccccc2)Oc2c(OC)c(O)cc(OC)c21 [Compound 26, sarcandrone B] |  |  |  | 1.2 ± 2.5 | 7.5 ± 2.5 | 
33 | COc1ccc(S(=O)(=O)NCc2ccc(C(=O)NCc3ccccc3)cc2)cc1 [Compound 44] | 18.5 ± 16.6 | 6.4 ± 4.2 | 1.5 ± 1.2 |  |  | 
34 | Oc1ccc([C@@H]2c3c(O)cc(O)cc3[C@@H]3c4c(O)cc(O)cc4[C@H]2[C@H]3c2ccc(O)cc2)cc1 [Compound 25, ampelopsin F] |  |  |  | 18.9 ± 2.2 | 37.5 ± 0.8 | 
35 | Cn1c(=O)c2c(nc(SCC(=O)Nc3ccc4c(c3)OCO4)n2Cc2cccc(Cl)c2)n(C)c1=O [Compound 29] |  |  |  |  | 7.3 ± 10.2 | 
36 | COc1ccc(CNC(=O)c2cn(CCC(C)C)c(=O)c3ccccc23)cc1OC [Compound 48] | 32 ± 4.2 | 8.2 ± 2.3 | 0.3 ± 0.5 |  |  | 
